From US8884022B2, “Inhibition of bacterial biofilms with aryl carbamates” (North Carolina State University, priority 2010, dated 2014)
Values belong to the compound of their own block, whether it stands above or below them.

Legend:
MRSA = assay: Biofilm inhibition, crystal violet assay; assay type: cell-based, methicillin-resistant S. aureus; settings: for biofilm inhibition activity (in words) / inhibition at 200 µM / IC50: MRSA; for inhibition at 200 µM / IC50: Staphylococcus aureus; for inhibition at 200 µM: read-out: % Inhibition of biofilm formation; for IC50: concentration that inhibits 50% of biofilm formation
Method: (§1) Procedure to Determine the Inhibitory Effect of Test Compounds.
(§2) Inhibition assays were performed by taking an overnight culture of bacterial strain and subculturing it at an OD600 of 0.01 into the medium. Stock solutions of predetermined concentrations of the test compound were then made in the medium. These stock solutions were aliquoted (100 μL) into the wells of the 96-well PVC microtiter plate. Sample plates were then wrapped in GLAD Press n'Seal® followed by an incubation under stationary conditions for 24 h at 37° C. After incubation, the medium was discarded from the wells and the plates were washed thoroughly with water. Plates were then stained with 100 μL of 0.1% solution of crystal violet (CV) and then incubated at ambient temperature for 30 min. Plates were washed with water again and the remaining stain was solubilized with 200 μL of 95% ethanol. A sample of 125 μL of solubilized CV stain from each well was transferred to the corresponding wells of a polystyrene microtiter dish. Biofilm inhibition was quantitated by measuring the OD540 of each well in which a negative control lane wherein no biofilm was formed served as a background and was subtracted out.

[1] = system: S. aureus strain ATCC 29213; assay: Biofilm inhibition, crystal violet assay; assay type: cell-based; settings: for biofilm inhibition activity (in words): 29213, 200 μM; for IC50: Staphylococcus aureus, ATCC29213, S. aureus ATCC 29213
Method: (§3) Given the potency of our lead compounds toward inhibiting MRSA biofilms, we next explored their activity against various other S. aureus strains. […] IC50 values were determined for each compound against each of the S. aureus strains.
as §1, §2

E. coli = assay: Biofilm inhibition, crystal violet assay; assay type: cell-based; settings: for inhibition at 200 µM / IC50: Escherichia coli; for inhibition at 200 µM: read-out: % Inhibition of biofilm formation; for IC50: concentration that inhibits 50% of biofilm formation
Method: as §1, §2

[2] = system: S. aureus strain ATCC 25923; assay: Biofilm inhibition, crystal violet assay; assay type: cell-based; settings: Staphylococcus aureus, ATCC25923; S. aureus ATCC 25923
Method: as §3, §1, §2

[3] = system: S. aureus strain ATCC 29740; assay: Biofilm inhibition, crystal violet assay; assay type: cell-based; settings: Staphylococcus aureus, ATCC29740; S. aureus ATCC 29740
Method: as §3, §1, §2

[4] = system: red blood cell (difibrinated sheep blood); assay: Red blood cell hemolysis assay; assay type: cell-based; settings: up to the highest concentration tested (1.2 mM)
Method: This was assessed using a red blood cell hemolysis assay using difibrinated sheep blood.
Red Blood Cell Hemolysis Assay.
Hemolysis assays were performed on mechanically difibrinated sheep blood (Hemostat Labs: DSB100). 1.5 mL of blood was placed into a microcentrifuge tube and centrifuged at 10000 rpm for ten minutes. The supernatant was removed and then the cells were resuspended with 1 mL of phosphate-buffered saline (PBS). The suspension was centrifuged, the supernatant was removed and cells resuspended two more times. The final cell suspension was then diluted tenfold. Test compound solutions were made in PBS in small culture tubes and then added to aliquots of the tenfold suspension dilution. PBS alone was used as a negative control and as a zero hemolysis marker whereas a 1% Triton X sample was used as a positive control and the 100% lysis marker. Samples were then placed in an incubator at 37° C. while being shaken at 200 rpm for one hour. After one hour, the samples were transferred to microcentrifuge tubes and then centrifuged at 10000 rpm for ten minutes. The resulting supernatant was diluted by a factor of 40 in distilled water. The absorbance of the supernatant was measured with a UV spectrometer at a 540 nm wavelength.

S. epidermidis = assay: Biofilm inhibition, crystal violet assay; assay type: cell-based; settings: 200 μM
Method: as §1, §2

VRE = assay: Biofilm inhibition, crystal violet assay; assay type: cell-based, vancomycin-resistant Enterococcus faecium; settings: 200 μM
Method: as §1, §2

R. salexigens [5] = assay: Biofilm inhibition, crystal violet assay; assay type: cell-based, Rhodospirillum salexigens; settings: 200 μM
Method: as §1, §2

MDRAB = assay: Biofilm inhibition, crystal violet assay; assay type: cell-based, multi-drug resistant Acinetobacter baumannii; settings: 200 μM
Method: as §1, §2

R. salexigens [6] = settings: reported by Yamada et al.; cited from earlier work

Compound: CC1CCC(C(C)C)C(O)C1 (single isomer, unassigned; (-)) [(−)-menthol, reference compound]
biofilm inhibition activity (in words) (MRSA; 200 μM): completely inactive
biofilm inhibition activity (in words) [1]: completely inactive

Compound: CC(C)CCC[C@@H](C)C1CCC2[C@@H]3CC=C4C[C@@H](OC(=O)N5CCc6ccccc65)CC[C@]4(C)[C@H]3CC[C@]12C (stereo partly shown)
melting point: 142 to 145 °C

Compound: CCOC(=O)NCCc1ccccc1 [Compound 2d, ethyl N-(2-phenethyl) carbamate]
% Inhibition of biofilm formation (E. coli; 200 μM): 40.8%
% Inhibition of biofilm formation (S. epidermidis): 63.1%
% Inhibition of biofilm formation (MRSA; 200 μM): 68.1%
% Inhibition of biofilm formation (VRE): 80.2%
% Inhibition of biofilm formation (R. salexigens [5]): 59.7%
% Inhibition of biofilm formation (MDRAB): 52.0%
red blood cell lysis [4]: no red blood cell lysis
antibiofilm activity reported in the literature (R. salexigens [6]): moderate antibiofilm activity

Compound: COC1CC(C)CCC1C(C)C (single isomer, unassigned; (-)) [(−)-menthol methyl ether, reference compound]
biofilm inhibition activity (in words) (MRSA; 200 μM): completely inactive
biofilm inhibition activity (in words) [1]: completely inactive

Compound: CC(C)[C@H]1CC[C@H](C)C[C@@H]1OC(=O)NCCc1ccccn1 [Compound 9k, (1S,2R,5S)-2-isopropyl-5-methylcyclohexyl 2-(pyridin-2-yl)ethylcarbamate]
biofilm inhibition activity (in words) (MRSA; 200 μM): identical antibiofilm properties as their enantiomers
biofilm inhibition activity (in words) [1]: identical antibiofilm properties as their enantiomers
melting point: 57 to 59 °C

Now from value to compound, other results behind:

IC50 (E. coli): 34.6 µM
IC50 (MRSA): 4.87 µM
IC50 [2]: 19.7 µM
IC50 [1]: 124 µM
IC50 [3]: 82.2 µM
melting point: 59 to 63 °C
Compound: CC(C)[C@@H]1CC[C@@H](C)C[C@H]1OC(=O)NCCc1ccccn1 [Compound 9a, (1R,2S,5R)-2-isopropyl-5-methylcyclohexyl 2-(pyridin-2-yl)ethylcarbamate]
inhibition at 200 µM (E. coli; 200 μM): > 80%
inhibition at 200 µM (MRSA; 200 μM): > 90%
red blood cell lysis [4]: no red blood cell lysis

IC50 (MRSA): 49.8 µM
IC50 [2]: 71.9 µM
IC50 [1]: 21.2 µM
IC50 [3]: 24.3 µM
Compound: CC(C)[C@@H]1CC[C@@H](C)C[C@H]1OC(=O)NCCc1ccc(N)cc1 [Compound 8a, (1R,2S,5R)-2-isopropyl-5-methylcyclohexyl 4-aminophenethylcarbamate]
inhibition at 200 µM (MRSA; 200 μM): > 90%
red blood cell lysis [4]: no red blood cell lysis

melting point: 135 to 139 °C
Compound: CC(C)CCC[C@@H](C)C1CCC2[C@@H]3CC=C4C[C@@H](OC(=O)NCCc5ccc(N)cc5)CC[C@]4(C)[C@H]3CC[C@]12C (stereo partly shown)

IC50 (E. coli): 28.3 µM
Compound: CC(C)[C@@H]1CC[C@@H](C)C[C@H]1OC(=O)NCCn1nccn1 [Compound 5a, (1R,2S,5R)-2-isopropyl-5-methylcyclohexyl 2-(2H-1,2,3-triazol-2-yl)ethylcarbamate]
inhibition at 200 µM (E. coli; 200 μM): > 80%
